According to ChEMBL document CHEMBL3232851 (Bioorg Med Chem, 2014):

Legend:
[1] = Membrane permeabilizing activity of the compound in calcein-loaded egg phosphatidylcholine liposomes assessed as release of calcein from liposomes at pH 6.8 after 10 mins by fluorescence assay; assay type: ADME, Microsome
[2] = biological target: T1, Prostaglandin G/H synthase 1 (Ovis aries, UniProt P05979); assay: Inhibition of purified ovine COX-1 by enzyme immunoassay
T1 sequence (P05979 whole entry): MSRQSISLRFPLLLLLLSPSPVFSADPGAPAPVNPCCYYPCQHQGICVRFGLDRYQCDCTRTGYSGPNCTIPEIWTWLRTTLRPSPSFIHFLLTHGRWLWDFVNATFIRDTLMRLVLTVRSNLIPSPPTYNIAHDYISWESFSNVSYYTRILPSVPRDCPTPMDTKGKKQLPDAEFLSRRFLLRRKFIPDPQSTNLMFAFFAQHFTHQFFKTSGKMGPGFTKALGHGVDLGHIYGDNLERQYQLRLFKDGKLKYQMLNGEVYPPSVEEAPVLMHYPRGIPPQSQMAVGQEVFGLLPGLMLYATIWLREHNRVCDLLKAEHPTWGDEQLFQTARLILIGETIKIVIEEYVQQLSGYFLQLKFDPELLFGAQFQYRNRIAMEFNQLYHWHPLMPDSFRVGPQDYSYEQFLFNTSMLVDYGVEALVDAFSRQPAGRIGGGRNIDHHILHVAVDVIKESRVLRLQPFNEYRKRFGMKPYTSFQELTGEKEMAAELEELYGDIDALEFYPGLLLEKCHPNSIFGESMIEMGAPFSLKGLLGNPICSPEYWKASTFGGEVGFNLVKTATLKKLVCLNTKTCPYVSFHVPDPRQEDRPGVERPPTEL

[3] = biological target: T2, Prostaglandin G/H synthase 2 (Homo sapiens, UniProt P35354); assay: Inhibition of human recombinant COX-2 by enzyme immunoassay
T2 sequence (P35354 whole entry): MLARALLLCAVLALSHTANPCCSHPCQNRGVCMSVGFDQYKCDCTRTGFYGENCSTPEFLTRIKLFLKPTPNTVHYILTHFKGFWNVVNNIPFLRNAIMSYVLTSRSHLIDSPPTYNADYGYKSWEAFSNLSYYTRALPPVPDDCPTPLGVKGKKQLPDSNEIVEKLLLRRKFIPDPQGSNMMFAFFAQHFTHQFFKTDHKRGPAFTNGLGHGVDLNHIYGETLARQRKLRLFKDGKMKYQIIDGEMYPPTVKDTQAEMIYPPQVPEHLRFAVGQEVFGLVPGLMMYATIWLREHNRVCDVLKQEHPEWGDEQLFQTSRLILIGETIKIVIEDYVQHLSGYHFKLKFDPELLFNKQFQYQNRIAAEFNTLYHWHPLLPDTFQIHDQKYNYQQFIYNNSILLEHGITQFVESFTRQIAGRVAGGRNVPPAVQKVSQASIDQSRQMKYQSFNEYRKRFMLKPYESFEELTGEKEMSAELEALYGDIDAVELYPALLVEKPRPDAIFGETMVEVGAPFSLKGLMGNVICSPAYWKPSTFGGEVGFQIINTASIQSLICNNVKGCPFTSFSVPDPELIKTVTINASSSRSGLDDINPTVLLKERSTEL

[4] = test system: COX-2; assay: Ratio of EC50 for membrane permeabilization to IC50 for human recombinant COX-2

SMILES	EC50 [1]	IC50 [2]	IC50 [3]	calcein release EC50/COX-2 IC50 ratio [4]
NS(=O)(=O)c1ccc(C2=C(c3ccccc3)C(=O)OC2)cc1	480 µM	–	–	–
Cc1ccc(-c2cc(C(F)(F)F)nn2-c2ccc(S(C)(=O)=O)cc2)cc1	1440 µM	> 500 µM	0.13 µM	11.1
CS(=O)(=O)c1ccc(-n2nc(C(F)(F)F)cc2-c2ccccc2)cc1	1300 µM	> 500 µM	6.84 µM	0.19
Cc1ccc(C2=C(c3ccc(S(C)(=O)=O)cc3)COC2=O)cc1	6230 µM	> 500 µM	0.3 µM	20.8
Cc1ccc(C2=C(c3ccc(S(N)(=O)=O)cc3)COC2=O)cc1	24 µM	385 µM	0.11 µM	0.22
Cc1ccc(-c2cc(C(F)(F)F)nn2-c2ccc(S(N)(=O)=O)cc2)cc1 [CELECOXIB]	50 µM	–	–	–
CS(=O)(=O)c1ccc(C2=C(c3ccccc3)C(=O)OC2)cc1 [ROFECOXIB]	12600 µM	–	–	–
